# Test system: TM4SF5-expressing cells (SNU449T7)
# Experiment: Subcutaneous xenograft model of TM4SF5-expressing liver cancer cell line
# Format: in vivo, BALB/c-Nude mice
# Details: for tumor volume / liver cancer formation inhibitory effect: 5 mg/kg IP every 3 days, 8 times; for tumor volume: vs vehicle (FIG. 11c); for liver cancer formation inhibitory effect: images of recovered cancer tissues (FIG. 11b); for expressions of factors related to fibrosis, inflammation-related cytokines/chemokines (CCL2, CCL5, or CCL20), and AFP: cancer tissues vs vehicle (FIG. 11e); for phosphorylation of FAK, STAT3, c-Src, Akt and p27: liver cancer tissue extracts, three days after last injection (FIG. 11d)
# Method: The next day, the cells were detached by treating with a T/E (Trypsin/EDTA) solution and centrifuged at 150x g for 3 minutes to obtain a pellet. Thereafter, the supernatant was removed, and the pellet was prepared by resuspension in phosphate buffered saline (PBS). For the generation of liver cancer, 10^7 cells/100 µl were injected once subcutaneously into the right thigh area of 8-week-old male BALB/c-Nude mice. At this time, the animals were anesthetized by inhalation with […] and injected. From the 7th day after the cell injection, drugs ST-2-001, ST-3-006, and ST-3-011 were each intraperitoneally injected at 5 mg/kg of body weight for a total of 8 times every 3 days. The body weight of the animals was measured every week from the day of cell injection, and the tumor volume was measured every 3 days from the 7th day after the cell injection. The tumor volume was calculated as (length×width×width)/2 (mm^3) by measuring the length and width of the tumor. Finally, on the 31st day after the cell injection, the animals were sacrificed by a standard method, and liver tissues were obtained to analyze the liver cancer tissues.
# Eight-week-old male BALB/c-Nude mice (n=8, Orient, Seongnam, Republic of Korea) were allowed free access to a normal diet, and TM4SF5-non-expressing cells (SNU449Cp) and TM4SF5-expressing cells (SNU449T7) were injected once subcutaneously at a dose of 10^7 cells per mouse. Starting from the 7th day after the cell injection, drug ST-2-001, ST-3-006, or ST-3-011 was intraperitoneally injected at 5 mg/kg of body weight every 3 days for a total of 8 times. Body weight and tumor volume were measured every week, and on the 31st day after the cell injection, the mice were anesthetized by a standard method, liver tissues were obtained, and the size of the liver cancer tissues was photographed. Thereafter, the tissues were randomly divided into several sets and analyzed by immunohistochemistry, Western blot, qRT-PCR, etc.
Structure (SMILES),tumor volume,liver cancer formation inhibitory effect,"expressions of factors related to fibrosis, inflammation-related cytokines/chemokines (CCL2, CCL5, or CCL20), and AFP","phosphorylation of FAK, STAT3, c-Src, Akt and p27"
"COc1ccc(-c2cc(-c3ccc(NC(C)=O)cc3)no2)cc1 [ST-2-001, N-(4-(5-(4-methoxyphenyl)isoxazole-3-yl)phenyl)acetamide]",statistically significantly inhibited,the greatest,decreased,significantly inhibited
"CC(=O)Nc1ccc(-c2cc(-c3ccc(F)cc3)on2)cc1 [ST-3-006, N-(4-(5-(4-fluorophenyl)isoxazole-3-yl)phenyl)acetamide]",statistically significantly inhibited,relatively less than those of ST-2-001,decreased,significantly inhibited
"COc1ccc(-c2cc(-c3cccc(NC(C)=O)c3)no2)cc1 [ST-3-011, N-(3-(5-(4-methoxyphenyl)isoxazole-3-yl)phenyl)acetamide]",statistically significantly inhibited,relatively less than those of ST-2-001,decreased,significantly inhibited

# Source: patent EP4772500A1, “NOVEL ISOXAZOLE COMPOUND AS TM4SF5-SPECIFIC INHIBITOR AND USE THEREOF” (Seoul National University R&DB Foundation, priority 2023, dated 2025)
